This is an account of results in patent US8450479B2, “3-substituted-4-oxo-3,4-dihydro-imidazo[5,1-d][1,2,3,5-tetrazine-8-carboxylic acid amides and their use” (Pharminox Limited, priority 2007, dated 2013).

Holding throughout (assay): MTT assay for 7-day toxicity assay
What all share (type): cell-based
In general terms: Tetrazolium dyes change colour on reduction, which living cells bring about.

Assay [1] relates to Colon HCT116 (MMR mutated). The conditions noted are these: Colon HCT116 (MMR mutated), 7-day MTT, single determinations, read-out: GI50. The protocol:
(§1) The cell culture techniques were carried out in a Class II microbiological safety cabinet which was swabbed with 70% IMS in distilled water before each use. Glioma cells were routinely cultured in Costar tissue culture flasks in RPMI 1640 liquid medium (containing 0.3 g/L L-glutamine and 2 g/L sodium bicarbonate) supplemented with 10% heat inactivated FBS (55-59° C.) for 1 hour to denature complement proteins which would otherwise evoke a cellular immune response resulting in cell lysis, 1% non-essential amino acids, 50 μg/mL gentamicin and 400 μg/mL G418 (vector selected reagent). Colorectal and melanoma cells were maintained in RPMI 1640 supplemented with 10% FBS. MRC-5 cells were cultured in EMEM. Cells were grown in a humidified incubator containing 5% CO2 at 37° C. Cells were sub-cultured when growth exceeded approximately 80% confluence, normally twice weekly. The medium was aspirated from the flask and approximately 0.8 mL trypsin-EDTA 1× solution added. The cells were re-incubated at 37° C. until they visibly detached from the flask. The cell suspension was then re-suspended in 5 mL medium and 0.5-1 mL of the cell suspension was transferred to a new flask (25 cm^2) with 7 mL culture medium. The cells were further incubated at 37° C. incubator. Cells were disposed after passage nearly 30 times in order to minimize phenotypic drift. New batches of cells were taken from liquid nitrogen storage by thawing rapidly (37° C. water bath) and re-suspension in a 25 cm^2 flask with 10 mL of culture medium. Two passages were allowed to resume normal growth. For long-term maintenance, viable cells at 60-80% confluence were detached by minimum amount of trypsin/EDTA and re-suspended in sterile filtered freezing medium (95% FBS, 5% DMSO), transferred to sterile cryogenic vials, and frozen overnight at −20° C. followed by −80° C. for 1-2 days and stored in liquid nitrogen for long term storage.
(§2) Most test compounds, including temozolomide, were prepared as stock solution (100 mM) in DMSO and stored at −20° C. for not more than 6 months.
(§3) This assay was first described in Mosmann, T., 1983, “Rapid colorimetric assay for cellular growth and survival: Application to proliferation and cytotoxicity assays”, Journal of Immunological Methods, Vol. 65, Nos. 1-2, pp. 55-63.
(§4) Glioma cell lines, SNB19 and U373, both MGMT transfected (i.e., SNB19M and U373M) and vector controls (i.e., SNB19V and U373V); colorectal carcinoma cell lines, HCT116, HT29, and DLD1; melanoma cell line, SKMEL-28; breast cell line, MCF-7; and normal human fetal lung fibroblast cell line, MRC-5; were harvested at 60-80% confluence—during the logarithmic phase of growth.
(§5) Following harvesting, cells in suspension were gently syringed through a 23 gauge needle to obtain a near-single cell suspension. The desired cell seeding densities were used and added into 96-well plates in 180 μL culture medium if only one test compound was to be added, or 160 μL if two test compounds were to be added in combination, which were allowed to attach at 37° C. (5% CO2) overnight. For the 7 day assay, the cell seeding density for different cell lines was as follows: SNB19V, SNB19M: 650 cells/well; U373V, U373M: 650 cells/well; SNB19VR, U373VR: 650 cells/well; HCT116, DLD-1, SKMEL-28, MRC-5, MCF-7: 400 cells/well.
(§6) The two peripheral lanes were used as blank wells (cell free) and filled with 200 μL of medium in order to minimise medium evaporation from the plate. A separate time zero (T0) plate was set up alongside other plates. Serial dilutions in tissue culture medium of a 100 mM stock of test compound in DMSO were prepared immediately before each assay to ten times the final concentrations required, and then 20 μL was added to each well (200 μL total media per well) to achieve final concentrations of 0.5 μM, 1 μM, 5 μM, 10 μM, 50 μM, 100 μM, 500 μM, and 1000 μM. A minimum of four wells received the same test compound concentration. […]

Assay [2] deals with Colon HT29 (MMR proficient). The conditions noted are these: Homo sapiens, HT-29, 168 h, Colon HT29 (MMR proficient); 7-day MTT; single determinations; read-out: GI50. Here is the method:
as §1, §2, §3, §4, §5, §6

In assay [3] the test system is Melanoma SKMEL-28 (MMR proficient). The conditions noted are these: Homo sapiens, SK-MEL-28, 168 h, Melanoma SKMEL-28 (MMR proficient); 7-day MTT; single determinations; read-out: GI50. Here is the method: as §1, §2, §3, §4, §5, §6
The subject of another assay is Glioma SNB19M (MGMT+). As to conditions: Glioma SNB19M (MGMT+), 7-day MTT, single determinations. The protocol:
as §1, with “Glioma cells were routinely cultured in Costar tissue culture flasks in RPMI 1640 liquid medium (containing 0.3 g/L L-glutamine and 2 g/L sodium bicarbonate) supplemented with 10% heat inactivated FBS (55-59° C.) for 1 hour to denature complement proteins which would otherwise evoke a cellular immune response resulting in cell lysis, 1% non-essential amino acids, 50 μg/mL gentamicin and 400 μg/mL G418 (vector selected reagent). Colorectal and melanoma cells were maintained in RPMI 1640 supplemented with 10% FBS.” left out
as §2, §4, §5
(§7) The two peripheral lanes were used as blank wells (cell free) and filled with 200 μL of medium in order to minimise medium evaporation from the plate. A separate time zero (T0) plate was set up alongside other plates. Serial dilutions in tissue culture medium of a 100 mM stock of test compound in DMSO were prepared immediately before each assay to ten times the final concentrations required, and then 20 μL was added to each well (200 μL total media per well) to achieve final concentrations of 0.5 μM, 1 μM, 5 μM, 10 μM, 50 μM, 100 μM, 500 μM, and 1000 μM. A minimum of four wells received the same test compound concentration. To control wells, including those in the T0 plate, 20 μL of medium was added. […] A separate plate treated in the same way, but free of test compound, was used as a measure of cell viability at the time of drug addition (day 0).
(§8) After incubation at 37° C., 5% CO2 for 7 days (or immediately for the day 0 plate), cell viability was quantified using the MTT assay. 50 μL of sterile filtered MIT (3-(4,5-dimethylthiazol-2-yl)-2,5-diphenyltetrazolium bromide) (2 mg/mL in phosphate buffered saline) were added to each well (final concentration 0.4 mg/mL) and the plates were re-incubated for 4 hours to allow metabolic conversion of MTT by dehydrogenases in viable cells to insoluble formazan crystals.
(§9) The intensity of absorbance is directly proportional to cell viability.

The subject of the next assay is Glioma SNB19V (MGMT−). The conditions noted are these: Glioma SNB19V (MGMT−), 7-day MTT, single determinations. Here is the method: as §1, with “Glioma cells were routinely cultured in Costar tissue culture flasks in RPMI 1640 liquid medium (containing 0.3 g/L L-glutamine and 2 g/L sodium bicarbonate) supplemented with 10% heat inactivated FBS (55-59° C.) for 1 hour to denature complement proteins which would otherwise evoke a cellular immune response resulting in cell lysis, 1% non-essential amino acids, 50 μg/mL gentamicin and 400 μg/mL G418 (vector selected reagent). Colorectal and melanoma cells were maintained in RPMI 1640 supplemented with 10% FBS.” left out
as §2, §4, §5, §7, §8, §9

The subject of another assay is Colon DLD1. As to conditions: Homo sapiens, DLD-1, 168 h; Colon DLD1; 7-day MTT; single determinations; read-out: GI50. The protocol: as §1, §2, §3, §4, §5, §6
Assay [4] has as its system Glioma SNB19VR (MGMT−) (TMZ resistant). The conditions noted are these: Glioma SNB19VR (MGMT−, TMZ resistant), 7-day MTT, single determinations, read-out: GI50. The protocol: as §1, §2, §3, §4, §5, §6
Assay [5] has as its system Normal Human Fetal Lung Fibroblast MRC-5. As to conditions: Normal Human Fetal Lung Fibroblast MRC-5, 7-day MTT, single determinations, read-out: GI50. Here is the method: as §1, §2, §3, §4, §5, §6
Another assay relates to Glioma U373M (MGMT+). The conditions noted are these: Glioma U373M (MGMT+), 7-day MTT, single determinations. The protocol:
as §1, with “Glioma cells were routinely cultured in Costar tissue culture flasks in RPMI 1640 liquid medium (containing 0.3 g/L L-glutamine and 2 g/L sodium bicarbonate) supplemented with 10% heat inactivated FBS (55-59° C.) for 1 hour to denature complement proteins which would otherwise evoke a cellular immune response resulting in cell lysis, 1% non-essential amino acids, 50 μg/mL gentamicin and 400 μg/mL G418 (vector selected reagent). Colorectal and melanoma cells were maintained in RPMI 1640 supplemented with 10% FBS.” left out
as §2, §4, §5, §7, §8, §9

The test system of a further assay is Glioma U373V (MGMT low). As to conditions: Glioma U373V (MGMT low), 7-day MTT, single determinations. Here is the method:
as §1, with “Glioma cells were routinely cultured in Costar tissue culture flasks in RPMI 1640 liquid medium (containing 0.3 g/L L-glutamine and 2 g/L sodium bicarbonate) supplemented with 10% heat inactivated FBS (55-59° C.) for 1 hour to denature complement proteins which would otherwise evoke a cellular immune response resulting in cell lysis, 1% non-essential amino acids, 50 μg/mL gentamicin and 400 μg/mL G418 (vector selected reagent). Colorectal and melanoma cells were maintained in RPMI 1640 supplemented with 10% FBS.” left out
as §2, §4, §5, §7, §8, §9

Several values for one entry are separate records, joined by “and”; a condition that tells them apart may be missing. Equal values may be shown once. Read-outs that look alike come from different tables or passages of the source.

By GI50 is commonly meant the concentration giving 50% growth inhibition. As for `COc1cc(Cn2nnc3c(C(N)=O)ncn3c2=O)cc(OC)c1OC` [AA-002, 4-Oxo-3-(3,4,5-trimethoxybenzyl)-3,4-dihydroimidazo[5,1-d][1,2,3,5]tetrazine-8-carboxamide], the concentration for 50% growth inhibition (GI50) in assay [1] (Homo sapiens, HCT-116, 168 h) worked out at 393 µM; in [2], 128 µM; in assay [3], 293 µM.
`NC(=O)c1ncn2c(=O)n(CCc3ccccc3)nnc12` [DD-001, 4-oxo-3-phenethyl-3,4-dihydroimidazo[5,1-d][1,2,3,5]tetrazine-8-carboxamide]: the GI50 with Glioma SNB19M (MGMT+) (168 h) is 95 µM; in the assay on Glioma SNB19M (MGMT+) it was 70.2 µM and 92.6 µM; with Glioma SNB19V (MGMT−) (168 h) it was 77 µM; with Glioma SNB19V (MGMT−), 128 µM and 91.1 µM; in the assay with Colon DLD1 it was 385 µM; in assay [1] (Homo sapiens, HCT-116, 168 h), 302 µM. The GI50 came out at 498 µM in [2] and 424 µM in assay [3].
Take `NC(=O)c1ncn2c(=O)n(Cc3ccco3)nnc12` [PX-004]: the GI50 is 45.4 µM with Colon DLD1; 55.6 µM in assay [1]; 70.9 µM in assay [1] (Homo sapiens, HCT-116, 168 h); 27.2 µM in assay [2]; 50.1 µM in assay [4] (168 h); 52.5 µM in [4]. Also, the GI50 in assay [3] came to 53.4 µM; in [5] (Homo sapiens, MRC5, 168 h), 60.3 µM; in [5] it was 55.5 µM.
For `C[C@@H](c1ccccc1)n1nnc2c(C(N)=O)ncn2c1=O` [BB-002, (S)-3-(−1-Phenylethyl)-8-carbamoylimidazotetrazin-4-one], the GI50 was determined as 41.2 µM with Glioma SNB19M (MGMT+) (168 h); 49.7 µM in the assay with Glioma SNB19M (MGMT+); 35.3 µM in the assay on Glioma SNB19V (MGMT−) (168 h); 34.1 µM in the assay with Glioma SNB19V (MGMT−); 69.6 µM with Glioma U373M (MGMT+) (168 h); 95 µM with Glioma U373M (MGMT+). Besides, the GI50 with Glioma U373V (MGMT low) (168 h) was determined as 61.6 µM; in the assay on Glioma U373V (MGMT low), 70.7 µM; in assay [1] (Homo sapiens, HCT-116, 168 h), 206 µM; in [2] it was 243 µM; in assay [3], 222 µM.
